From ChEMBL document CHEMBL1781959, “Synthesis and in vitro antitumor activity of substituted quinazoline and quinoxaline derivatives: search for anticancer agent” (Eur J Med Chem, 2011)

Experiments:
Assay type in all cases: functional
RXF 393 = assay: Anticancer activity against human RXF393 cells assessed as cell growth promotion at 10^-5 M after 48 hrs by SRB assay relative to control
ACHN = assay: Anticancer activity against human ACHN cells assessed as cell growth promotion at 10^-5 M after 48 hrs by SRB assay relative to control
UACC-257 = assay: Anticancer activity against human UACC257 cells assessed as cell growth promotion at 10^-5 M after 48 hrs by SRB assay relative to control
HCT-116 = assay: Anticancer activity against human HCT116 cells assessed as cell growth promotion at 10^-5 M after 48 hrs by SRB assay relative to control
UACC-62 = assay: Anticancer activity against human UACC62 cells assessed as cell growth promotion at 10^-5 M after 48 hrs by SRB assay relative to control
MDA-MB-435 = assay: Anticancer activity against human MDA-MB-435 cells assessed as cell growth promotion at 10^-5 M after 48 hrs by SRB assay relative to control
MDA-MB-468 = assay: Anticancer activity against human MDA-MB-468 cells assessed as cell growth promotion at 10^-5 M after 48 hrs by SRB assay relative to control
OVCAR-8 = assay: Anticancer activity against human OVCAR8 cells assessed as cell growth promotion at 10^-5 M after 48 hrs by SRB assay relative to control
SW-620 = assay: Anticancer activity against human SW620 cells assessed as cell growth promotion at 10^-5 M after 48 hrs by SRB assay relative to control
LOX IMVI = assay: Anticancer activity against human LOXIMVI cells assessed as cell growth promotion at 10^-5 M after 48 hrs by SRB assay relative to control
NCI-H460 = assay: Anticancer activity against human NCI-H460 cells assessed as cell growth promotion at 10^-5 M after 48 hrs by SRB assay relative to control
Malme-3M = assay: Anticancer activity against human MALME-3M cells assessed as cell growth promotion at 10^-5 M after 48 hrs by SRB assay relative to control
K562 = assay: Anticancer activity against human K562 cells assessed as cell growth promotion at 10^-5 M after 48 hrs by SRB assay relative to control
SK-OV-3 = assay: Anticancer activity against human SKOV3 cells assessed as cell growth promotion at 10^-5 M after 48 hrs by SRB assay relative to control
PC-3 = assay: Anticancer activity against human PC3 cells assessed as cell growth promotion at 10^-5 M after 48 hrs by SRB assay relative to control
MCF7 = assay: Anticancer activity against human MCF7 cells assessed as cell growth promotion at 10^-5 M after 48 hrs by SRB assay relative to control
CCRF-CEM = assay: Anticancer activity against human CCRF-CEM cells assessed as cell growth promotion at 10^-5 M after 48 hrs by SRB assay relative to control
SF-539 = assay: Anticancer activity against human SF539 cells assessed as cell growth promotion at 10^-5 M after 48 hrs by SRB assay relative to control
M14 = assay: Anticancer activity against human M14 cells assessed as cell growth promotion at 10^-5 M after 48 hrs by SRB assay relative to control
SK-MEL-28 = assay: Anticancer activity against human SK-MEL-28 cells assessed as cell growth promotion at 10^-5 M after 48 hrs by SRB assay relative to control
T47D = assay: Anticancer activity against human T47D cells assessed as cell growth promotion at 10^-5 M after 48 hrs by SRB assay relative to control
UO-31 = assay: Anticancer activity against human UO31 cells assessed as cell growth promotion at 10^-5 M after 48 hrs by SRB assay relative to control
SK-MEL-5 = assay: Anticancer activity against human SK-MEL-5 cells assessed as cell growth promotion at 10^-5 M after 48 hrs by SRB assay relative to control
HCT-15 = assay: Anticancer activity against human HCT15 cells assessed as cell growth promotion at 10^-5 M after 48 hrs by SRB assay relative to control
[1] = Anticancer activity against human Hs 578T cells assessed as cell growth promotion at 10^-5 M after 48 hrs by SRB assay relative to control
MOLT-4 = assay: Anticancer activity against human MOLT4 cells assessed as cell growth promotion at 10^-5 M after 48 hrs by SRB assay relative to control
OVCAR-5 = assay: Anticancer activity against human OVCAR5 cells assessed as cell growth promotion at 10^-5 M after 48 hrs by SRB assay relative to control
NCI/ADR-RES = assay: Anticancer activity against human NCI/ADR-RES cells assessed as cell growth promotion at 10^-5 M after 48 hrs by SRB assay relative to control
SNB-19 = assay: Anticancer activity against human SNB19 cells assessed as cell growth promotion at 10^-5 M after 48 hrs by SRB assay relative to control
EKVX = assay: Anticancer activity against human EKVX cells assessed as cell growth promotion at 10^-5 M after 48 hrs by SRB assay relative to control
SF-268 = assay: Anticancer activity against human SF268 cells assessed as cell growth promotion at 10^-5 M after 48 hrs by SRB assay relative to control
HCC 2998 = assay: Anticancer activity against human HCC2998 cells assessed as cell growth promotion at 10^-5 M after 48 hrs by SRB assay relative to control
SF-295 = assay: Anticancer activity against human SF295 cells assessed as cell growth promotion at 10^-5 M after 48 hrs by SRB assay relative to control
NCI-H23 = assay: Anticancer activity against human NCI-H23 cells assessed as cell growth promotion at 10^-5 M after 48 hrs by SRB assay relative to control
786-0 = assay: Anticancer activity against human 786-0 cells assessed as cell growth promotion at 10^-5 M after 48 hrs by SRB assay relative to control
A549 = assay: Anticancer activity against human A549 cells assessed as cell growth promotion at 10^-5 M after 48 hrs by SRB assay relative to control
KM12 = assay: Anticancer activity against human KM12 cells assessed as cell growth promotion at 10^-5 M after 48 hrs by SRB assay relative to control
SN12C = assay: Anticancer activity against human SN12C cells assessed as cell growth promotion at 10^-5 M after 48 hrs by SRB assay relative to control
NCI-H322M = assay: Anticancer activity against human NCI-H322M cells assessed as cell growth promotion at 10^-5 M after 48 hrs by SRB assay relative to control
A498 = assay: Anticancer activity against human A498 cells assessed as cell growth promotion at 10^-5 M after 48 hrs by SRB assay relative to control

COc1cc(/C=C/c2ccc(NC(=O)c3ccccc3NC(=O)c3ccccc3)cc2)ccc1O
Activity (RXF 393): 95.14%
Activity (ACHN): 97.71%
Activity (UACC-257): 104%
Activity (HCT-116): 92.7%
Activity (UACC-62): 98.83%
Activity (MDA-MB-435): 107%
Activity (MDA-MB-468): 95.39%
Activity (OVCAR-8): 105%
Activity (SW-620): 109%
Activity (LOX IMVI): 92%
Activity (NCI-H460): 107%
Activity (Malme-3M): 101%
Activity (K562): 96.88%
Activity (SK-OV-3): 96.53%
Activity (PC-3): 94.13%
Activity (MCF7): 96.33%
Activity (CCRF-CEM): 79.93%
Activity (SF-539): 110%
Activity (M14): 92.83%
Activity (SK-MEL-28): 115%
Activity (T47D): 89.85%
Activity (UO-31): 68.52%
Activity (SK-MEL-5): 86.16%
Activity (HCT-15): 98.82%
Activity [1]: 100%
Activity (MOLT-4): 86.81%
Activity (OVCAR-5): 116%
Activity (NCI/ADR-RES): 117%
Activity (SNB-19): 104%
Activity (EKVX): 100%
Activity (SF-268): 108%
Activity (HCC 2998): 99.7%
Activity (SF-295): 162%
Activity (NCI-H23): 105%
Activity (786-0): 95.86%
Activity (A549): 99.78%
Activity (KM12): 106%
Activity (SN12C): 96.62%
Activity (NCI-H322M): 91.92%

CN(C)c1ccc(/C=C/c2nc3ccccc3nc2SCc2nc3ccccc3[nH]2)cc1
Activity (RXF 393): 99.96%
Activity (ACHN): 103%
Activity (UACC-257): 102%
Activity (HCT-116): 87.81%
Activity (UACC-62): 84.34%
Activity (MDA-MB-435): 102%
Activity (MDA-MB-468): 109%
Activity (OVCAR-8): 108%
Activity (SW-620): 102%
Activity (LOX IMVI): 103%
Activity (NCI-H460): 104%
Activity (Malme-3M): 102%
Activity (K562): 105%
Activity (PC-3): 119%
Activity (MCF7): 77.51%
Activity (CCRF-CEM): 81.79%
Activity (SF-539): 85.81%
Activity (M14): 92.21%
Activity (SK-MEL-28): 124%
Activity (UO-31): 84.96%
Activity (A498): 88.48%
Activity (SK-MEL-5): 97.96%
Activity (HCT-15): 93.83%
Activity [1]: 119%
Activity (MOLT-4): 84.64%
Activity (OVCAR-5): 102%
Activity (NCI/ADR-RES): 106%
Activity (SNB-19): 96.81%
Activity (EKVX): 92.96%
Activity (SF-268): 107%
Activity (HCC 2998): 90.32%
Activity (SF-295): 104%
Activity (NCI-H23): 102%
Activity (786-0): 90.32%
Activity (A549): 97.05%
Activity (KM12): 104%
Activity (SN12C): 100%
Activity (NCI-H322M): 97.59%

O=C(Nc1ccccc1C(=O)Nc1ccc(/C=C/C=C/c2ccccc2)cc1)c1ccccc1
Activity (RXF 393): 98.83%
Activity (ACHN): 87.29%
Activity (UACC-257): 103%
Activity (HCT-116): 84.74%
Activity (UACC-62): 84.87%
Activity (MDA-MB-435): 90.52%
Activity (MDA-MB-468): 81.99%
Activity (OVCAR-8): 104%
Activity (SW-620): 107%
Activity (LOX IMVI): 84.87%
Activity (NCI-H460): 94.36%
Activity (Malme-3M): 78.99%
Activity (K562): 62.47%
Activity (SK-OV-3): 87.56%
Activity (PC-3): 75.75%
Activity (MCF7): 100%
Activity (CCRF-CEM): 53.89%
Activity (SF-539): 102%
Activity (M14): 83.75%
Activity (SK-MEL-28): 107%
Activity (T47D): 86.44%
Activity (UO-31): 49.85%
Activity (SK-MEL-5): 77.57%
Activity (HCT-15): 73.53%
Activity [1]: 80.44%
Activity (MOLT-4): 77.32%
Activity (OVCAR-5): 99.95%
Activity (NCI/ADR-RES): 112%
Activity (SNB-19): 90.58%
Activity (EKVX): 87.7%
Activity (SF-268): 98.17%
Activity (HCC 2998): 93.69%
Activity (SF-295): 58.93%
Activity (NCI-H23): 91.39%
Activity (786-0): 84.31%
Activity (A549): 91.49%
Activity (KM12): 93.79%
Activity (SN12C): 87.79%
Activity (NCI-H322M): 81.13%
